Consider 4 molecules from PMC11962866 (RSC Advances, 2025).

≈ marks a conversion by molar mass, not a printed value. Entries after “also recorded” stand apart in the source; their conditions may differ.

For one data set, the system named is C. alb (SC5314). The experiment in a line: In vitro antifungal assay. The note with it: Candida albicans, SC5314, read-out: MIC80 C. alb (SC5314). It is filed as cell-based.
The test system of a further data set is C. neo. The experiment in a line: In vitro antifungal assay. The format is cell-based. The note with it: Cryptococcus neoformans, read-out: MIC80 C. neo.
Data set [1] has as its system Strain 904. The experiment in a line: Antifungal activity against fluconazole-resistant strain. It is filed as cell-based, Candida albicans. The note with it: for MIC80: Candida albicans, 904, read-out: MIC80 Strain 904; for MIC: Candida albicans, 904, read-out: MIC against C. alb.
Another data set deals with Strain 901. Described as above. It is filed as cell-based. As to conditions: Candida albicans, 901, read-out: MIC80 Strain 901.
Another data set deals with Strain 632. The description is as above. It is filed as cell-based. The note with it: Candida albicans, 632, read-out: MIC80 Strain 632.
In another data set the test system is Strain 17#. The data set is described as above. It is filed as cell-based. As to conditions: Candida albicans, read-out: MIC80 Strain 17#.
A further data set concerns Strain CaR. The data set is described as above. The format is cell-based. As to conditions: Candida albicans, read-out: MIC80 Strain CaR.
Data set [2] deals with strain 904, fluconazole-resistant strain of C. albicans. Briefly: Minimum fungicidal concentration. The format is cell-based, Candida albicans.
The nature of data set [3]: Metabolic stability assay of liver microsomes. The note with it: mouse. The format is in vitro ADME. Background: Microsomes from liver hold many membrane-bound enzymes, among them those of drug oxidation.
A further data set deals with MRC-5 cells. The experiment in a line: Cytotoxicity assay on normal cells. It is filed as cell-based, human. The note with it: Homo sapiens, MRC5, 72 h, read-out: IC50 on MRC-5 cell lines.
Data set [4] has as its system azole-resistant strain 904. Briefly: In vivo antifungal potency, mouse infection model, kidney fungal burden. The note with it: mice, tail vein infection with strain 904, intraperitoneal, day 5.
The subject of data set [5] is C. alb SC5314. The experiment in a line: GC-MS analysis of sterol composition. It is filed as cell-based, Candida albicans. As to conditions: 0.03 μg mL^−1, 24 h.
Data set [6] has as its system C. alb SC5314. Briefly: Morphological observation of fungal cells by TEM. The format is cell-based, Candida albicans. The note with it: 2 μg mL^−1, 24 h.
The test system of data set [7] is azole-resistant strain 904. Briefly: Yeast-to-hypha morphological transition. It is filed as cell-based, Candida albicans. The note with it: 0.25 μg mL^−1, 5 h.
Data set [8] relates to ERG11 and CDR1 of azole-resistant strain 904. The experiment in a line: RT-PCR expression of resistant genes ERG11 and CDR1. It is filed as cell-based, Candida albicans. As to conditions: 0.25 μg mL^−1, strain 904, RT-PCR.
The subject of data set [9] is five fluconazole-resistant strains obtained from clinical isolation. Briefly: Antifungal activity, span over five fluconazole-resistant strains. The format is cell-based, Candida albicans.
A short description of a further data set: Plasma stability assay. The note with it: male, SD, rat.
For data set [10], the system named is C. alb (5314),C. par, C. gla, C. kru and C. neo. The experiment in a line: In vitro antifungal assay, span over the five tested species. The format is cell-based. The note with it: range over C. alb (5314).
For data set [11], the system named is azole-resistant strain 904. Briefly: Biofilm formation. The format is cell-based, Candida albicans.
The test system of data set [12] is Strain 904. Briefly: Time-kill test. It is filed as cell-based, Candida albicans. The note with it: A11 at 8 × MIC, 16 × MIC, 32 × MIC.
The subject of data set [13] is Strain 904. The experiment in a line: ROS level. The format is cell-based, Candida albicans. As to conditions: 0.25 μg mL^−1, compared to blank and fluconazole groups.

As for `OC(Cn1cncn1)(Cn1cncn1)c1ccc(F)cc1F` [Fluconazole, fluconazole, reference compound], the MIC80 in the data set on C. alb (SC5314) was 4 µg/mL (≈ 13.1 µM); in the data set on C. neo it was 8 µg/mL (≈ 26.1 µM); in the data set on Strain 904 [1] it was above 128 µg/mL; in the data set on Strain 901 it was above 128 µg/mL; with Strain 632 it was above 128 µg/mL; in the data set with Strain 17#, above 128 µg/mL. The MIC80 with Strain CaR is above 128 µg/mL. In addition, in the data set on Strain 904 [1], the MIC is above 128 µg/mL. Moreover, the MFC in [2] (Candida albicans, read-out: MFC against C. alb) was above 128 µg/mL. Further, the half-life is above 2 h in data set [3] and above 6 h in the data set “Plasma stability assay”. In addition, the microsomal CLint in [3] is 2 µL/min/mg. In addition, in the data set on MRC-5 cells, the IC50 is above 100 µM. In data set [4], the “Efficacy in vivo (CFU fungal burden in kidneys)” value is “ineffective”. In addition, the “Effect on ergosterol biosynthesis / sterol composition” value in the data set on C. alb SC5314 [5] is given as “effectively suppresses ergosterol biosynthesis”. The “Fungal cell morphology (TEM)” value in the data set on C. alb SC5314 [6] is “the cell membrane was damaged”. In data set [7], the “Morphological transition from yeast to hyphae” value is listed as “did not inhibit the morphological transition”. Further, the “Expression of ERG11 and CDR1” value in [8] was “overexpression of drug resistance gene ERG11 and CDR1”. Further, the “Antifungal activity against the tested resistant strains (in words)” value in [9] was “completely inactive”. For the same molecule, the amount remaining at 3 h in the data set “Plasma stability assay” came to 102%.

Turning to `O=C(Nc1cccc2ccccc12)c1ccc(COC(Cn2ccnc2)c2ccc(Cl)cc2Cl)cc1` (stereo not shown) [A13, 4-((1-(2,4-Dichlorophenyl)-2-(1H-imidazol-1-yl)ethoxy)methyl)-N-(naphthalen-1-yl)benzamide], the MIC80 with C. alb (SC5314) is 8 µg/mL (≈ 15.5 µM); in the data set with C. neo, 64 µg/mL (≈ 124 µM); in the data set on Strain 904 [1] it was 1 µg/mL (≈ 1.94 µM); in the data set on Strain 901, 1 µg/mL (≈ 1.94 µM); in the data set on Strain 632 it was 8 µg/mL (≈ 15.5 µM); in the data set on Strain 17#, 64 µg/mL (≈ 124 µM). Besides, the MIC80 with Strain CaR was determined as 128 µg/mL (≈ 248 µM). Further, in the data set with MRC-5 cells, the IC50 is above 100 µM. Also, the “MIC80 / MIC span over the five tested fungi” value in [10] was 2 to 64 µg/mL.

In the case of `O=C(Nc1ccc(F)cc1F)c1ccc(COC(Cn2ccnc2)c2ccc(Cl)cc2Cl)cc1` (stereo not shown) [A11, 4-((1-(2,4-Dichlorophenyl)-2-(1H-imidazol-1-yl)ethoxy)methyl)-N-(2,4-difluorophenyl)benzamide], the MIC80 in the data set on C. alb (SC5314) worked out at 0.03 µg/mL (≈ 0.0597 µM); with C. neo it was 0.06 µg/mL (≈ 0.119 µM); in the data set with Strain 904 [1] it was 0.125 µg/mL (≈ 0.249 µM); in the data set on Strain 901, 1 µg/mL (≈ 1.99 µM); in the data set on Strain 632, 2 µg/mL (≈ 3.98 µM); with Strain 17#, 1 µg/mL (≈ 1.99 µM). In addition, the MIC80 is 2 µg/mL (≈ 3.98 µM) in the data set on Strain CaR and 0.125 to 2 µg/mL (≈ 0.249 to 3.98 µM) in data set [9] (Candida albicans, read-out: MIC80 span over the tested resistant strains). Further, the MIC in the data set with Strain 904 [1] is 0.125 µg/mL (≈ 0.249 µM). This molecule also had an MFC/MIC in data set [2] (strain 904) of 16. For the same molecule, the half-life is 0.258 h in data set [3] and above 6 h in “Plasma stability assay”. In addition, the intrinsic metabolic clearance (microsomal CLint) in [3] was 89.4 µL/min/mg. Also, in the data set with MRC-5 cells, the IC50 was above 100 µM. In data set [4], the “Efficacy in vivo (CFU fungal burden in kidneys)” value was “potent efficacy; also recorded: significantly reduced fungal burden”. Further, the “Effect on ergosterol biosynthesis / sterol composition” value with C. alb SC5314 [5] is recorded as “effectively suppresses ergosterol biosynthesis”. Further, the “Fungal cell morphology (TEM)” value with C. alb SC5314 [6] is “disrupt the structural integrity of the cells”. Besides, the “Morphological transition from yeast to hyphae” value in data set [7] was “completely hindered the morphogenetic transition”. Further, the “Effect on mature biofilms” value in [11] was “dose-dependent destruction of mature fungal biofilms”. Moreover, the “Expression of ERG11 and CDR1” value in data set [8] is recorded as “reduced to basic levels”. In the data set on Strain 904 [12], the Time-kill fungicidal effect entry was “potent fungicidal effects at three concentrations”. For the same molecule, in the data set on Strain 904 [13], the “Intracellular ROS levels” value was “significant increase in intracellular ROS levels”. For the same molecule, the share remaining at 3 h in “Plasma stability assay” is 73.9%.

`O=C(Nc1ccc2ccccc2c1)c1ccc(COC(Cn2ccnc2)c2ccc(Cl)cc2Cl)cc1` (stereo not shown) [A14, 4-((1-(2,4-Dichlorophenyl)-2-(1H-imidazol-1-yl)ethoxy)methyl)-N-(naphthalen-2-yl)benzamide]: the MIC80 in the data set on C. alb (SC5314) stood at 32 µg/mL (≈ 62 µM); with C. neo it was 32 µg/mL (≈ 62 µM); in the data set on Strain 904 [1], 16 µg/mL (≈ 31 µM); with Strain 901 it was 16 µg/mL (≈ 31 µM); in the data set with Strain 632 it was 16 µg/mL (≈ 31 µM); with Strain 17#, 64 µg/mL (≈ 124 µM). The MIC80 in the data set with Strain CaR was 8 µg/mL (≈ 15.5 µM). The IC50 with MRC-5 cells is above 100 µM. Further, the “MIC80 / MIC span over the five tested fungi” value in data set [10] fell in the range of 2 to 64 µg/mL.

Usually MIC80 stands for an inhibitory concentration at the 80% level, which refers to growth in some studies and to a panel of isolates in others. One may read the MIC as the least concentration at which growth counts as inhibited. Broadly, the MFC is the lowest tested concentration that kills the fungus rather than only halting it. By half-life is commonly meant the time needed for the level to fall by half in the phase considered. Higher therefore signals slow loss. In general, microsomal CLint refers to the capacity of the preparation to metabolise the compound, expressed as a volume cleared per time. Low values mean greater metabolic stability, high ones faster metabolism. What is called IC50 is the concentration at which inhibition is half-maximal.
